Laboratory results published in patent publication USRE45810E1, “Process for producing spherical base granule comprising easily water-soluble drug” (ASAHI KASEI CHEMICALS CORPORATION, priority 2006, dated 2015).
Read-outs that look alike come from different tables or passages of the source.

Legend:
[1] = in 1 cm^3 of water of 20° C., cited from earlier work
[2] = Tackiness of dried film of layering liquid, finger test by panel of three experts; format: physicochemical
Protocol: A layering liquid (3 g) is poured in a polypropylene Petri dish having a diameter of 8 cm and dried at 40° C. in an air-circulation-free dryer (“FC610”, product of Advantec Co., Ltd.). Within three seconds after taking out the dried product from the dryer, tackiness of the dried film when an index finger is pressed against the film for two seconds and then released therefrom is evaluated by a panel of three experts. The tackiness is rated as “1” when no tackiness is observed, “2” when a little tackiness is observed, “3” when tackiness is observed, “4” when strong tackiness is observed, and “5” when very strong tackiness is observed. The tackiness of the dried film is evaluated by the average of them.
It is known empirically that agglomeration occurs during layering when the tackiness is “3” or higher so that the layering rate must be set low to prevent it. Layering cannot be performed in practice when the tackiness is “5”.

In the case of `OC[C@@H](O)[C@@H](O)[C@H](O)[C@H](O)CO` [D-mannitol], the Solubility [1] is given as 0.18 g.

In the case of `O=C(CO)[C@@H](O)[C@H](O)[C@H](O)CO` [Fructose, fructose], the “Tackiness of layering liquid (in words)” value [2] is listed as “do not show a tackiness reducing effect”, the Solubility [1] is listed as 6 g and the Solubility ([1]; listed as fructose) is listed as 0.6 g.

For `OC[C@@H](O)[C@@H](O)[C@H](O)[C@@H](O)CO` [Sorbitol, sorbitol], the “Tackiness of layering liquid (in words)” value [2] is given as “do not show a tackiness reducing effect” and the Solubility [1] is given as 0.9 g.
